# Source: patent US10144746B2 (GLOBAL BLOOD THERAPEUTICS, INC., priority 2015, dated 2018)
# Structures can show the parent of a compound that is named as a salt.
# Target: Human plasma kallikrein (Homo sapiens (Human), UniProt P03952)
# Experiment: In vitro plasma kallikrein inhibition assay (chromogenic substrate D-Pro-Phe-Arg-pNa, absorbance at 405 nm, IC50 determination)
# Assay type: biochemical
# Conditions: for IC50: read-out: KLKB1 pIC50 (converted)
# Method: In Vitro Plasma Kallikrein Inhibition Assay
# The chromogenic substrate D-Pro-Phe-Arg-pNa, 2HCl (BIOPHEN CS-31(02) from Hyphen BioMed, Neuville-Sur-oise, France) was dissolved in 5 mL deionized water and stored at 4° C. […] All other chemicals were of analytical grade.
# A stock solution of 7 μM in 50% glycerol was stored at −20° C.
# Enzyme reactions were conducted in “assay buffer” comprised of 20 mM HEPES at pH 7.4, 150 mM NaCl, 0.1% PEG-8000 and 0.01% Triton X-100.
# Both enzyme and substrate were diluted in assay buffer.
# Plate measurements were conducted using a SPECTROStar Nano reader (BMG Labtech, San Francisco, Calif., USA). […] We used discrete wavelength, precise, kinetic reads of 15 cycles with a 60 sec cycle time.
# Determination of IC50 values
# The test compound was dissolved in 100% DMSO. The compounds were serially diluted in DMSO in a 7 point dose response. For the assays, 66.5 μL of protease solution (protease in assay buffer) was added per well followed by the addition of 8.5 μL of compound in 100% DMSO. […] After 30 min. incubation at room temperature on an orbital shaker, the reactions were started by the addition of 10 μL substrate solution (in assay buffer, final assay concentration was 600 uM). After the addition of the substrate solution the final DMSO concentration was 10%. The plate was placed again on the shaker for 5 sec, spun at 2000 rpm for 5 sec and read on the spectrophotometer. […] The IC50 value was calculated from the plot of rate vs. inhibitor concentration by a 4 parameter logistic equation: y=A+((B−A)/([…]))
# where y is the rate at the inhibitor concentration, x. A is the minimum y value at the highest inhibitor concentration and B is the y value in the absence of inhibitor, C is the IC50 value and D is the slope factor. The curve fitting was conducted with the non-linear regression routine of the analysis software XLfit (IDBS, version 5.3.1).
# Chain of Human plasma kallikrein (P03952 391-638): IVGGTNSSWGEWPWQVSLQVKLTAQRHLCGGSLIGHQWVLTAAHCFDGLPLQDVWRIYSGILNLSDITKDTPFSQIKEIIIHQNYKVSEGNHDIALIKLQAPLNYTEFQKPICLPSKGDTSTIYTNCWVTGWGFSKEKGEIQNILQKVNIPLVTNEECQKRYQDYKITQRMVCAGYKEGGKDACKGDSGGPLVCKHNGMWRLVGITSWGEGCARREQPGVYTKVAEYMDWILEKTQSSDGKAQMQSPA
# Chain of Human plasma kallikrein (P03952 20-390 partner): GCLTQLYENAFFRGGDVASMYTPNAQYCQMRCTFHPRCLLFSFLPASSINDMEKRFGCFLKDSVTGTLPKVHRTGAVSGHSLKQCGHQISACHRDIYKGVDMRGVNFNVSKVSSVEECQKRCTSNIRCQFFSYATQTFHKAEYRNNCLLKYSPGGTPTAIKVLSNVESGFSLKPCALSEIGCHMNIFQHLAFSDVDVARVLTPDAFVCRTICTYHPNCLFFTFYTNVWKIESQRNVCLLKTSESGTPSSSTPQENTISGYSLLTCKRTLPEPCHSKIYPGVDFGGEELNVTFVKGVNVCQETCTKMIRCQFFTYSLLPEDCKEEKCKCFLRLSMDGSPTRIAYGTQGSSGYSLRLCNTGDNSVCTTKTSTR
KLKB1 pIC50,IC50,SMILES
6.91,–,Cc1cc(N)nc(C)c1CNC(=O)c1ccc2c(c1)C1OC2c2ccc(-c3ccccc3F)cc21 (centres unmarked)
6.55,–,Cc1cc(N)nc(C)c1CNC(=O)c1ccc2c(c1)C1OC2c2cc(N3CCN(C(=O)c4ccccc4)CC3)ccc21 (centres unmarked)
5,–,Cc1c(CNC(=O)c2ccc3c(c2)C2OC3c3ccc(-c4cccc(F)c4F)cc32)c(F)cc2c1CNC2 (centres unmarked)
4.44,–,Cc1cc(N)nc(C)c1CNC(=O)c1ccc2c(c1)[C@H]1O[C@@H]2c2ccc(-c3ccc(F)cc3F)cc21
–,316 nM,Cc1cc2c(c(C)c1CNC(=O)c1ccc3c(c1)C1OC3c3ccc(-c4ccc(F)cc4F)cc31)CNC2 (racemic)
–,6310 nM,Cc1cc(N)nc(C)c1CNC(=O)c1ccc2c(c1)C1OC2c2ccccc21 (racemic) [Example 1]
–,3550 nM,Cc1cc(N)nc(C)c1CNC(=O)c1ccc2c(c1)C1OC2c2ccc(C[N+]3([O-])CCOCC3)cc21 (racemic) [Example 50]
–,933 nM,Cc1cc(N)nc(C)c1CNC(=O)c1ccc2c(c1)C1OC2c2ccc(Nc3ccn(C)n3)cc21 (racemic) [Example 51]
–,457 nM,Cc1cc(N)nc(C)c1CNC(=O)c1ccc2c(c1)C1OC2c2cc(Nc3ccnn3C)ccc21 (racemic) [Example 54]
–,6.31 nM,Cc1cc(N)nc(C)c1CNC(=O)c1ccc2c(c1)C1OC2c2ccc(-c3ccc(F)cc3C#N)cc21 (racemic) [Example 69]
–,6170 nM,"Cc1cc2c(c(C)c1CNC(=O)c1ccc3c(c1)C1OC3c3ccc(-c4cccc(F)c4F)cc31)CNC2 (racemic) [Example 100, trifluoroacetate salt]"
–,28.2 nM,Cc1cc(N)nc(C)c1CNC(=O)c1ccc2c(c1)C1OC2c2ccc(-c3ccc(F)c(F)c3F)cc21 (racemic) [Example 104]
–,15.1 nM,COc1cc(N)nc(C)c1CNC(=O)c1ccc2c(c1)C1OC2c2ccc(-c3ccc(C)cc3C#N)cc21 (racemic) [Example 105]
–,22.9 nM,Cc1cc(N)nc(C)c1CNC(=O)c1ccc2c(c1)C1OC2c2ccc(-c3ccc(Cl)c(F)c3F)cc21 (racemic) [Example 106]
–,25.7 nM,"Cc1cc(N)nc(C)c1CNC(=O)c1ccc2c(c1)C1OC2c2ccc(-c3ccc(F)c4c3OCO4)cc21 (racemic) [Example 108, trifluoroacetate salt]"
–,162 nM,"Cc1cc(N)nc(C)c1CNC(=O)c1ccc2c(c1)C1OC2c2ccc(-c3ncccc3F)cc21 (racemic) [Example 110, trifluoroacetate salt]"
–,45.7 nM,"Cc1cc(N)nc(C)c1CNC(=O)c1ccc2c(c1)C1OC2c2ccc(-c3ncc(F)cc3F)cc21 (racemic) [Example 116, (±)-N-[(6-amino-2,4-dimethylpyridin-3-yl)-methyl]-12-(3,5-difluoropyridin-2-yl)-15-oxatetracyclo[6.6.1.0^2,^7.0^9,1^4] pentadeca-2,4,6,9,11,13-hexaene-4-carboxamide]"
–,3.98 nM,"COc1cc(N)nc(C)c1CNC(=O)c1ccc2c(c1)C1OC2c2ccc(Cn3cccn3)cc21 (racemic) [Example 117, (±)-N-[(6-amino-4-methoxy-2-methylpyridin-3-yl)methyl]-12-[(1H-pyrazol-1-yl)methyl]-15-oxatetracyclo[6.6.1.0^2,^7.0^9,1^4] pentadeca-2,4,6,9,11,13-hexaene-4-carboxamide]"
–,64.6 nM,"Cc1ccc(-c2ccc3c(c2)C2OC3c3ccc(C(=O)NCc4c(C)cc(N)nc4C)cc32)c(F)c1F (racemic) [Example 118, (±)-N-[(6-amino-2,4-dimethylpyridin-3-yl)-methyl]-12-(2,3-difluoro-4-methylphenyl)-15-oxatetracyclo[6.6.1.0^2,^7.0^9,1^4] pentadeca-2,4,6,9,11,13-hexaene-4-carboxamide]"
–,427 nM,"Cc1cc(N)nc(C)c1CNC(=O)c1ccc2c(c1)C1OC2c2ccc(-c3ccc(C(F)(F)F)c(F)c3F)cc21 (racemic) [Example 119, (±)-N-[(6-amino-2,4-dimethylpyridin-3-yl)-methyl]-12-[2,3-difluoro-4-(trifluoromethyl)-phenyl]-15-oxatetracyclo[6.6.1.0^2,^7.0^9,1^4] pentadeca-2,4,6,9,11,13-hexaene-4-carboxamide]"
–,676 nM,"Cc1cc(N)nc(C)c1CNC(=O)c1ccc2c(c1)C1OC2c2ccc(Oc3ccc(F)cc3F)cc21 (racemic) [Example 120, (±)-N-[(6-amino-2,4-dimethylpyridin-3-yl)-methyl]-12-(2,4-difluorophenoxy)-15-oxatetra-cyclo[6.6.1.0^2,^7.0^9,1^4] pentadeca-2,4,6,9,11,13-hexaene-4-carboxamide]"
–,437 nM,"Cc1cc(N)nc(C)c1CNC(=O)c1ccc2c(c1)C1OC2c2ccc(-c3ccc(F)c(C(F)(F)F)c3)cc21 (racemic) [Example 121, (±)-N-[(6-amino-2,4-dimethylpyridin-3-yl)-methyl]-12-[4-fluoro-3-(trifluoromethyl)phenyl]-15-oxatetracyclo [6.6.1.0^2,^7.0^9,1^4]pentdeca-2,4,6,9,11,13-hexaene-4-carboxamide]"
–,148 nM,"Cc1cc(N)nc(C)c1CNC(=O)c1ccc2c(c1)C1OC2c2ccc(Oc3ccc(F)c(F)c3)cc21 (racemic) [Example 122, (±)-N-[(6-amino-2,4-dimethylpyridin-3-yl)-methyl]-12-(3,4-difluorophenoxy)-15-oxatetracyclo[6.6.1.0^2,^7.0^9,1^4] pentadeca-2,4,6,9,11,13-hexaene-4-carboxamide]"
–,282 nM,"Cc1cc(N)nc(C)c1CNC(=O)c1ccc2c(c1)C1OC2c2ccc(-c3ccc4[nH]cnc4c3)cc21 (racemic) [Example 123, (±)-N-[(6-amino-2,4-dimethylpyridin-3-yl)-methyl]-12-(1H-1,3-benzodiazol-5-yl)-15-oxatetracyclo[6.6.1.0^2,^7.0^9,1^4] pentadeca-2,4,6,9,11,13-hexaene-4-carboxamide]"
–,11500 nM,"Cc1cc2c(c(C)c1CNC(=O)c1ccc3c(c1)C1OC3c3ccc(-c4c(C)cccc4F)cc31)CNC2 (racemic) [Example 124, (±)-N-[(4,6-dimethyl-2,3-dihydro-1H-isoindol-5-yl)methyl]-12-(2-fluoro-6-methylphenyl)-15-oxatetracyclo[6.6.1.0^2,^7.0^9,1^4] pentadeca-2,4,6,9,11,13-hexaene-4-carboxamide]"
–,661 nM,"Cc1cc(CN)cc(C)c1CNC(=O)c1ccc2c(c1)C1OC2c2ccc(-c3ccc(Cl)c(F)c3F)cc21 (racemic) [Example 125, (±)-N-{[4-(aminomethy])-2,6-dimethylphenyl]-methyl}-12-(4-chloro-2,3-difluorophenyl)-15-oxatetracyclo-[6.6.1.0^2,^7.0^9,1^4]pentadeca-2,4,6,9,11,13-hexaene-4-carboxamide]"
–,6310 nM,"C#Cc1ccccc1-c1ccc2c(c1)C1OC2c2ccc(C(=O)NCc3c(C)cc(N)nc3C)cc21 (racemic) [Example 126, (±)-N-[(6-amino-2,4-dimethylpyridin-3-yl)-methyl]-12-(2-ethynylphenyl)-15-oxatetra-cyclo[6.6.1.0^2,^7.0^9,1^4]pentadeca-2,4,6,9,11,13-hexaene-4-carboxamide]"
–,977 nM,"COc1ccc(-n2cnnn2)c(CNC(=O)c2ccc3c(c2)C2OC3c3ccc(-c4ccc(F)cc4F)cc32)c1 (racemic) [Example 127, (±)-12-(2,4-difluorophenyl)-N-{[5-methoxy-2-(1H-1,2,3,4-tetrazol-1-yl)phenyl]methyl}-15-oxatetracyclo[6.6.1.0^2,^7.0^9,1^4] pentadeca-2,4,6,9,11,13-hexaene-4-carboxamide]"
–,933 nM,"Cc1cc(N)nc(C)c1CNC(=O)c1ccc2c(c1)C1OC2c2ccc(-c3cccc(S(C)(=O)=O)c3)cc21 (racemic) [Example 128, (±)-N-[(6-amino-2,4-dimethylpyridin-3-yl)-methyl]-12-(3-methanesulfonylphenyl)-15-oxatetracyclo[6.6.1.0^2,^7.0^9,1^4] pentadeca-2,4,6,9,11,13 hexaene-4-carboxamide]"
–,234 nM,"COc1ccc(-n2cnnn2)c(CNC(=O)c2ccc3c(c2)C2OC3c3ccc(-c4ccc(F)cc4F)cc32)c1F (racemic) [Example 129, (±)-12-(2,4-difluorophenyl)-N-{[2-fluoro-3-methoxy-6-(1H-1,2,3,4-tetrazol-1-yl)phenyl]-methyl}-15-oxatetracyclo [6.6.1.0^2,^7.0^9,1^4]-pentadeca-2,4,6,9,11,13-hexaene-4-carboxamide]"

SMILES,KLKB1 pIC50,IC50
Cc1cc(N)nc(C)c1CNC(=O)c1ccc2c(c1)C1OC2c2ccc(Br)cc21 (centres unmarked),6,–
"COc1cc(N)nc(C)c1CNC(=O)c1ccc2c(c1)C1OC2c2ccc(Cn3cc(C)cn3)cc21 (racemic) [Example 132, (±)-N-[(6-amino-4-methoxy-2-methylpyridin-3-yl)methyl]-12-[(4-methyl-1H-pyrazol-1-yl)-methyl]-15-oxatetracyclo[6.6.1.0^2,^7.0^9,1^4]-pentadeca-2,4,6,9,11,13-hexaene-4-carboxamide]",–,2 nM
